Counter-ions that a name gives are not always drawn.
Key:
CYP3A4/5 = details: inhibitor 0.1, 0.5, 1 µM, direct-acting; FFA 1 μM, human liver microsomes
Protocol: (§1) To determine the metabolic role of individual CYP450 enzymes more quantitatively, FFA (1 μM) or nFFA (0.1 μM) was manually incubated in duplicate with human liver microsomes (1 mg protein/mL) for 60 min (FFA), or for 0 and 120 min (nFFA), in the presence of direct‐acting or metabolism‐dependent chemical inhibitors. […] Solvent controls were processed in parallel with each inhibitor. Under the conditions described above, incubations were conducted and reactions terminated at 0 or 120 min. Metabolite formation for chemical inhibitors was normalized over time to metabolite formation in the respective solvent controls for each inhibitor. Assays were conducted in duplicate due to the low biological and technical variability expected in this assay; statistical analysis was not possible with duplicate samples.

P‐gp = P‐gp (Homo sapiens, UniProt P08183); details: cited from earlier work
BCRP = molecular target: T1, BCRP (Homo sapiens, UniProt Q9UNQ0); details: cited from earlier work
T1 sequence (Q9UNQ0 1-655): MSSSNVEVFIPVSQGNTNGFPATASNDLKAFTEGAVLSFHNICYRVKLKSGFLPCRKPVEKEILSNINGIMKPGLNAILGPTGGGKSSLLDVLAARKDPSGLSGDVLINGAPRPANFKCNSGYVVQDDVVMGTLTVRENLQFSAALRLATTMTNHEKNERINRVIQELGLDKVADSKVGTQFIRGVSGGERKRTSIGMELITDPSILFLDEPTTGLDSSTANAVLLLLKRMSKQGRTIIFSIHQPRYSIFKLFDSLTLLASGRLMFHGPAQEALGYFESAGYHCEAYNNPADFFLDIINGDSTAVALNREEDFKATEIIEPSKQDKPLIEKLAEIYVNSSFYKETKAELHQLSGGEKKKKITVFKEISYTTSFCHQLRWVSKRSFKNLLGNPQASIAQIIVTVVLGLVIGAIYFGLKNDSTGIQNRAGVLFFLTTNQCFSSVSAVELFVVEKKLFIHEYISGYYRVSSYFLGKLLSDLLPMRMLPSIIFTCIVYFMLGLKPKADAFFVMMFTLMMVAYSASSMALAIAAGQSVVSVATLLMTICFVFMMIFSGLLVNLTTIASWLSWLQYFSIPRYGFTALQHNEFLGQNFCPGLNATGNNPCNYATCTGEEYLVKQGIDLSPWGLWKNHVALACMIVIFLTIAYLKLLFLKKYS

CYP2C9 = molecular target: T2, CYP2C9 (Homo sapiens, UniProt P11712); experiment: Chemical inhibition of FFA metabolism in human liver microsomes, CYP2C9; assay type: in vitro ADME; details: inhibitor 20 µM, metabolism-dependent
T2 construct: manually incubated in duplicate with human liver microsomes (1 mg protein/mL); tissue Sekisui XenoTech, LLC; host or cells: pooled human liver microsomes (200 donors)
Protocol: as §1

CYP2B6 = molecular target: T3, CYP2B6 (Homo sapiens, UniProt P20813); experiment: Chemical inhibition of FFA metabolism in human liver microsomes, CYP2B6; assay type: in vitro ADME; details: probe FFA (1 µM), demethylation to nFFA, inhibitor 30 µM, metabolism-dependent, read-out: Reduction in FFA demethylation (percent inhibition by a selective inhibitor)
T3 construct: manually incubated in duplicate with human liver microsomes (1 mg protein/mL); tissue Sekisui XenoTech, LLC; host or cells: pooled human liver microsomes (200 donors)
T3 sequence (P20813 1-491): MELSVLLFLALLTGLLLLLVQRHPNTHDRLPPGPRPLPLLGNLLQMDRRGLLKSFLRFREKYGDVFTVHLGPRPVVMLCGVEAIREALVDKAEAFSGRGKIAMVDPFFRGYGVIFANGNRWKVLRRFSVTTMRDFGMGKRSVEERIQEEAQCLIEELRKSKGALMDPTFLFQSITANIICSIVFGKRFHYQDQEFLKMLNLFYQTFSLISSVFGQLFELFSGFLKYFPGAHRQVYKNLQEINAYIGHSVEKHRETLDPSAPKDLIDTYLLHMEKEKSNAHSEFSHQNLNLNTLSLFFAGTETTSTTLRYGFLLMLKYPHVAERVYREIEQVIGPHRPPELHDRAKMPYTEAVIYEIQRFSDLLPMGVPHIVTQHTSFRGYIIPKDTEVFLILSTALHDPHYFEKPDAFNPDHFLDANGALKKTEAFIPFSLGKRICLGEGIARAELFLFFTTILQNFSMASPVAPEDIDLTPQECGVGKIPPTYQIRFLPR
Protocol: as §1

CYP1A2 = molecular target: T4, CYP1A2 (Homo sapiens, UniProt P05177); experiment: Chemical inhibition of FFA metabolism in human liver microsomes, CYP1A2; assay type: in vitro ADME; details: probe FFA (1 µM), demethylation to nFFA, inhibitor 10 µM, metabolism-dependent, read-out: Reduction in FFA demethylation (percent inhibition by a selective inhibitor)
T4 construct: manually incubated in duplicate with human liver microsomes (1 mg protein/mL); tissue Sekisui XenoTech, LLC; host or cells: pooled human liver microsomes (200 donors)
T4 sequence (P05177 1-516): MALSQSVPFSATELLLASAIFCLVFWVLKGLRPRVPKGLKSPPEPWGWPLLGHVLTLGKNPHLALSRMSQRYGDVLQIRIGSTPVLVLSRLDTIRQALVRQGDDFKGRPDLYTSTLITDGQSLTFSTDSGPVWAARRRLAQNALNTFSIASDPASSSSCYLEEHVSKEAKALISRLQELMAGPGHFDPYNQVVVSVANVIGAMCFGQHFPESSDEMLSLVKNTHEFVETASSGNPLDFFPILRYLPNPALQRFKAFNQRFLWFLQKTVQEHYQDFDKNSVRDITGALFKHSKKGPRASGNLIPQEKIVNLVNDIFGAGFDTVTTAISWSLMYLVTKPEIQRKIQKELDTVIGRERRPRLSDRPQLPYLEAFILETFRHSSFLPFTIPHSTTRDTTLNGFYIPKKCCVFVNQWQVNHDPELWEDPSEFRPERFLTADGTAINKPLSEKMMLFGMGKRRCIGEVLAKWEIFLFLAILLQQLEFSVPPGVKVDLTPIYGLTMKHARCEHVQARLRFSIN
Protocol: as §1

CYP2C19 = CYP2C19 (Homo sapiens, UniProt P33261); experiment: in vitro; details: microsomes
Protocol: as §1

[1] = Metabolic stability and metabolite identity, rat intestinal S9 fractions; assay type: in vitro ADME; details: FFA incubation, LC-MS/MS; X = identified
Protocol: LC‐MS/MS analyses to assess metabolic stability and identify the transporter substrate were performed using an API 4000 QTRAP mass spectrometer (SCIEX, Framingham, MA) with electrospray ionization in positive mode. Chromatography was performed using an Atlantis dC18 analytical column (100 × 2.1 mm, 5 µm; Waters Corporation, Milford, MA). Mobile phases were 0.2% v/v formic acid in water and 0.2% v/v formic acid in acetonitrile. For metabolic stability experiments, FFA and metabolites were eluted at a flow rate of 0.6 mL/min, with a linear gradient of 20%−80% acetonitrile from 0.30−2.0 min. For transporter substrate experiments, the gradient was slightly modified to achieve suitable chromatography. The mass transitions monitored were 232.0 > 159.0 for FFA and 348.0 > 330.0 for 1ʹ‐OH‐midazolam‐d4 internal standard. […]
FFA (1 or 10 µM) was incubated with liver and intestinal S9 fractions (2 mg protein/mL) at 37 ± 1°C in 0.2‐mL incubation mixtures containing potassium phosphate buffer (50 mM, pH 7.4), magnesium chloride (MgCl2) (3 mM), and EDTA (1 mM, pH 7.4), in the presence or absence of a three‐component cofactor mixture (NADPH‐generating system, uridine diphosphate glucuronic acid (UDPGA) [8 mM], and 3’‐phosphoadenosine 5’‐phosphosulfate [0.5 mM]). […] Supernatant fractions were analyzed by LC‐MS/MS.
To characterize substrate loss and metabolic stability, duplicate samples were analyzed by LC‐MS/MS to determine the change in substrate concentration over the incubation period. The rate constant of elimination (kel, min^−1) was determined from the time course of substrate loss based on single exponential decay (A(t)=A0(‐kelt)) . Half‐life in vitro was determined by the following equation: t1/2 = 0.693/kel. The in vitro intrinsic clearance (CLint) was calculated from the rate constant of elimination as follows: CLintμL/min/mgprotein=kelmin^‐1×incubationvolume(μL)/mgproteinperincubation.
Percent loss of substrate was determined by normalizing the mean analyte peak‐area ratio at each time point to the average of four replicates at the 0‐min time point (100%).

CYP2D6 = CYP2D6 (Homo sapiens, UniProt P10635); experiment: in vitro; details: microsomes
Protocol: as §1

Sequence of P‐gp (P08183 whole entry): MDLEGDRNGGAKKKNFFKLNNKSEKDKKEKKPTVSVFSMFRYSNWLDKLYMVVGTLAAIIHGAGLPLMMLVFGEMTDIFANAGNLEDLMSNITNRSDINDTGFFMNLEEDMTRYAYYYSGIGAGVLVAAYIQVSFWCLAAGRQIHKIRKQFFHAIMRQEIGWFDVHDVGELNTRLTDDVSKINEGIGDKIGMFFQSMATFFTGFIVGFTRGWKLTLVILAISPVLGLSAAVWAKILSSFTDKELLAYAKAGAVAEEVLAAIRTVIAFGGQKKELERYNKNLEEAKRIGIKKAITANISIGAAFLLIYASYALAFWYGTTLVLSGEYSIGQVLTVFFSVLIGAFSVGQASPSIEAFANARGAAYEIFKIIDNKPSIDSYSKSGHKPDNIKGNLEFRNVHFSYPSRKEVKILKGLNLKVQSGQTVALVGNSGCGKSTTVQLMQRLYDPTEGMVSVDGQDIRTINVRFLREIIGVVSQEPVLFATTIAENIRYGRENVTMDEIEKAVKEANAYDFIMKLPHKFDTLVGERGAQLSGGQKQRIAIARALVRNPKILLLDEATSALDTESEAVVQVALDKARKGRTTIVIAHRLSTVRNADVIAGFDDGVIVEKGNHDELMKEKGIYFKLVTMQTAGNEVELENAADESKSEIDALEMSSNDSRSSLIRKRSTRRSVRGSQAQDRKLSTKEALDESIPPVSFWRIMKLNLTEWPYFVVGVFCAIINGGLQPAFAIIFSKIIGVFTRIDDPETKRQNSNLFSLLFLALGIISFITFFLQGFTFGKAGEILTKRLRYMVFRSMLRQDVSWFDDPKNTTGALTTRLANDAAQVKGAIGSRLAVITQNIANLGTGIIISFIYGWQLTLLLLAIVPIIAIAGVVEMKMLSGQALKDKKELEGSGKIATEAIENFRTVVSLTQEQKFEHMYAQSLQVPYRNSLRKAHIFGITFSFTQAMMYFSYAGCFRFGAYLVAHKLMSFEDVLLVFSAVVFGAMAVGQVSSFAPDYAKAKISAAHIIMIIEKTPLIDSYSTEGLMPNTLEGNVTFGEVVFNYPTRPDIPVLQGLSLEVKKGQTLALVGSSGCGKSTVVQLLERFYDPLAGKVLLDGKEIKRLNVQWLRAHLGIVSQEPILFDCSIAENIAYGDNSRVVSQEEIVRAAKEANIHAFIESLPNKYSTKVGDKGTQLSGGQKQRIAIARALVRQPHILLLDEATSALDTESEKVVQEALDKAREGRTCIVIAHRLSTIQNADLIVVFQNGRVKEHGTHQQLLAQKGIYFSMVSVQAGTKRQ
T2 sequence (P11712 whole entry): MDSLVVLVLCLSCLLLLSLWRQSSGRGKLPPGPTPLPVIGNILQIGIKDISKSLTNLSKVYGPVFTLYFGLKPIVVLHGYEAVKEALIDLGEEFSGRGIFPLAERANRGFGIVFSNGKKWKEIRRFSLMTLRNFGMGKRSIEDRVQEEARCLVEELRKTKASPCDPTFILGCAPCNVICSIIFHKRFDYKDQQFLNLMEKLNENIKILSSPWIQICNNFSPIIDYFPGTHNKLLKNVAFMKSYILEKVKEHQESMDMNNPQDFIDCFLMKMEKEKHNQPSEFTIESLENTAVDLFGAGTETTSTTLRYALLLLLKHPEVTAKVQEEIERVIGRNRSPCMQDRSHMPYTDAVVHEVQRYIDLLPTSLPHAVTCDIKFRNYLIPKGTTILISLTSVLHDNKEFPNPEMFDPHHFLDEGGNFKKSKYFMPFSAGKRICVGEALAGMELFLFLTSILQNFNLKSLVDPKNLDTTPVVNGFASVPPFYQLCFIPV
Sequence of CYP2C19 (P33261 whole entry): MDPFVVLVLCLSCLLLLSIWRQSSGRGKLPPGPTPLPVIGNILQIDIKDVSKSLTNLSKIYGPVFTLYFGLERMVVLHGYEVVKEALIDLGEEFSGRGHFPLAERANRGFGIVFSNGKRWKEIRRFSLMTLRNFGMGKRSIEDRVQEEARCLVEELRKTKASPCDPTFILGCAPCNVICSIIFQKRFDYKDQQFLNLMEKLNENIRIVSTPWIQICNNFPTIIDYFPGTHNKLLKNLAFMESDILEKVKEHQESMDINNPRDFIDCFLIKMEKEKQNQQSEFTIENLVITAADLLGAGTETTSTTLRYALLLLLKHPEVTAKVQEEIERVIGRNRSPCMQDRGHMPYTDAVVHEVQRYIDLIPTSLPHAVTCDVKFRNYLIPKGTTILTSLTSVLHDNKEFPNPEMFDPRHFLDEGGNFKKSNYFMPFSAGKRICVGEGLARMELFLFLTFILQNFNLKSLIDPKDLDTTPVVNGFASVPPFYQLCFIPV
Sequence of CYP2D6 (P10635 whole entry): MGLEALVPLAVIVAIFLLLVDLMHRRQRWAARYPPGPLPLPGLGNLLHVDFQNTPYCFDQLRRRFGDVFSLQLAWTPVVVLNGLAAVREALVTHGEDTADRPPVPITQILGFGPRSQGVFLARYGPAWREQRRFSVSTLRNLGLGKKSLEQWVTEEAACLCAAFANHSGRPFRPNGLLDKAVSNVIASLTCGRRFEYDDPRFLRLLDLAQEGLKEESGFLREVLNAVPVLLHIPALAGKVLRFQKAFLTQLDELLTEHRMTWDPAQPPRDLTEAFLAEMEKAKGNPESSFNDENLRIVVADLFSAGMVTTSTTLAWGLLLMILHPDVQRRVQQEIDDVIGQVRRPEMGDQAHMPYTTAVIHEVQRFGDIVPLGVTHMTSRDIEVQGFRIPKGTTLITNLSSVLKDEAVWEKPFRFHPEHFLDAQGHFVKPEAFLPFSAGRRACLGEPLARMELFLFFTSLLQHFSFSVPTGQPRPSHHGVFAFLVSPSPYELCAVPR

Row | SMILES | substrate capacity for P‐gp (P‐gp) | substrate capacity for BCRP (BCRP) | other results
1 | CC(=O)N1CCN(c2ccc(OCC3COC(Cn4ccnc4)(c4ccc(Cl)cc4Cl)O3)cc2)CC1 (centres unmarked) [Ketoconazole, ketoconazole] |  |  | Reduction in FFA demethylation (percent inhibition by a selective inhibitor) (CYP3A4/5): None
2 | CCCC(CCC)C(=O)O [valproate] | did not show substrate capacity | did not show substrate capacity | 
3 | O=C(O)COc1ccc(C(=O)c2cccs2)c(Cl)c1Cl [Tienilic acid] |  |  | inhibition at 60 min, 20 µM (CYP2C9; human, liver microsomes, probe FFA (1 µM), demethylation to nFFA, read-out: Reduction in FFA demethylation (percent inhibition by a selective inhibitor)): < 15%; Reduction in FFA demethylation (percent inhibition by a selective inhibitor) (CYP2C9; FFA 1 μM): 14%
4 | c1ccc(C2(N3CCCCC3)CCCCC2)cc1 [Phencyclidine, phencyclidine hydrochloride] |  |  | inhibition at 60 min, 30 µM (CYP2B6): 42%
5 | CC1(C)O[C@@H]2[C@@H](CO[C@@]3(COS(N)(=O)=O)OC(C)(C)O[C@@H]23)O1 [topiramate] | did not show substrate capacity | did not show substrate capacity | 
6 | NC(=O)N1c2ccccc2C=Cc2ccccc21 [carbamazepine] | did not show substrate capacity | did not show substrate capacity | 
7 | Cc1nc2c([nH]1)c(=O)n(C)c(=O)n2Cc1ccco1 [Furafylline, furafylline] |  |  | inhibition at 60 min, 10 µM (CYP1A2): 32%
8 | O=C1NC(=O)C(c2ccccc2)(c2ccccc2)N1 [phenytoin] | did not show substrate capacity | did not show substrate capacity | 
9 | CCC1(c2ccccc2)C(=O)NC(=O)NC1=O [phenobarbital] |  | did not show substrate capacity | 
10 | CC[C@@H](C(N)=O)N1CCCC1=O [levetiracetam] | did not show substrate capacity | did not show substrate capacity | 
11 | COc1ccc2nc([S@@+]([O-])Cc3ncc(C)c(OC)c3C)[nH]c2c1 [Esomeprazole, esomeprazole] |  |  | Reduction in FFA demethylation (percent inhibition by a selective inhibitor) (CYP2C19; 60 min, 10 µM): 8%; inhibition at 60 min, 10 µM (CYP2C19; Reduction in FFA demethylation (percent inhibition by a selective inhibitor)): < 15%
12 | CC(Cc1cccc(C(F)(F)F)c1)NO (centres unmarked) [C2] |  |  | identified in Intestinal S9 fractions, Rat [1]: trace
13 | C=C[C@H]1C[N@@]2CC[C@H]1C[C@@H]2[C@@H](O)c1ccnc2ccc(OC)cc12 [Quinidine, quinidine] |  |  | inhibition at 60 min, 1 µM (CYP2D6): 37%
